# Measured values taken from ChEMBL document CHEMBL1154489, “Isolation, structure and antibacterial activity of pleosporone from a pleosporalean ascomycete discovered by using antisense strategy” (Bioorg Med Chem, 2009).
# Activity calls are given as the source filed them. No cut-off for these calls is given here.
# How the values were obtained:
# Staphylococcus aureus [1] = test: Antibacterial activity against Staphylococcus aureus RN450 bearing RPSD antisense S1-782B plasmid at 1000 ug/mL after 18 hrs by rpsD sensitized two-plate differential sensitivity assay; format: functional; conditions: RN450, 18 h, read-out: IZ
# Staphylococcus aureus [2] = test: Antimicrobial activity against methicillin-sensitive Staphylococcus aureus ATCC 29213 after 20 hrs by twofold serial dilution method; format: functional; conditions: ATCC 29213, 20 h
# HeLa = test: Cytotoxicity against human HeLa cells; format: functional, cell-based
# Staphylococcus aureus [3] = test: Antibacterial activity against wild-type Staphylococcus aureus RN450 assessed as faint zone of clearance at 31.25 ug/mL after 18 hrs by rpsD sensitized two-plate differential sensitivity assay; format: functional, organism-based
# Staphylococcus aureus [4] = test: Inhibition of protein synthesis in Staphylococcus aureus assessed as [3H]leucine incorporation by scintillation counting; format: functional, organism-based
# Bacillus subtilis = test: Antimicrobial activity against wild-type Bacillus subtilis MB964 after 20 hrs by twofold serial dilution method; format: functional
# Staphylococcus aureus [5] = test: Antimicrobial activity against methicillin-sensitive Staphylococcus aureus MB2865 at 4 ug/mL after 20 hrs by twofold serial dilution method; format: functional
# Candida albicans = test: Antimicrobial activity against wild-type Candida albicans MY1055 after 20 hrs by twofold serial dilution method; format: functional; conditions: MY1055, 20 h
# Staphylococcus aureus [6] = test: Antibacterial activity against Staphylococcus aureus RN450 bearing RPSD antisense S1-782B plasmid assessed as minimum detection concentration after 18 hrs by rpsD sensitized two-plate differential sensitivity assay; format: functional
# Staphylococcus aureus [7] = test: Antibacterial activity against Staphylococcus aureus RN450 bearing RPSD antisense S1-782B plasmid after 18 hrs by rpsD sensitized two-plate differential sensitivity assay; format: functional, organism-based
# Streptococcus pneumoniae [8] = test: Antimicrobial activity against drug-sensitive Streptococcus pneumoniae CL2883 in CAMHB medium containing 2.5% horse blood after 20 hrs by twofold serial dilution method; format: functional
# Streptococcus pneumoniae [9] = test: Antimicrobial activity against drug-sensitive Streptococcus pneumoniae CL2883 in isosensitet medium after 20 hrs by twofold serial dilution method; format: functional
# Staphylococcus aureus [10] = test: Ratio of IC50 for RNA synthesis to IC50 for DNA synthesis in Staphylococcus aureus; format: functional
# Haemophilus influenzae = test: Antimicrobial activity against drug-sensitive Haemophilus influenzae MB4572 after 20 hrs by twofold serial dilution method; format: functional
# Staphylococcus aureus [11] = test: Inhibition of DNA synthesis in Staphylococcus aureus assessed as [3H]thymidine incorporation by scintillation counting; format: functional, organism-based
# Streptococcus pneumoniae [12] = test: Antimicrobial activity against drug-sensitive Streptococcus pneumoniae CL2883 in isosensitet medium at 2 ug/mL after 20 hrs by twofold serial dilution method; format: functional
# Escherichia coli [13] = test: Antimicrobial activity against Escherichia coli MB5746 envA1, tolC mutant after 20 hrs by twofold serial dilution method; format: functional
# Enterococcus faecalis = test: Antimicrobial activity against vancomycin-sensitive macrolide-resistant Enterococcus faecalis CL8516 after 20 hrs by twofold serial dilution method; format: functional
# Staphylococcus aureus [14] = test: Antimicrobial activity against methicillin-sensitive Staphylococcus aureus MB2865 after 20 hrs by twofold serial dilution method in presence of 50% human serum; format: functional
# Staphylococcus aureus [15] = test: Inhibition of RNA synthesis in Staphylococcus aureus assessed as [3H]uracil incorporation by scintillation counting; format: functional, organism-based
# Staphylococcus aureus [16] = test: Antibacterial activity against Staphylococcus aureus RN450 bearing RPSD antisense S1-782B plasmid assessed as faint zone of clearance at 31.25 ug/mL after 18 hrs by rpsD sensitized two-plate differential sensitivity assay; format: functional; conditions: RN450, 18 h, read-out: IZ
# Staphylococcus aureus [17] = test: Ratio of IC50 for RNA synthesis to IC50 for protein synthesis in Staphylococcus aureus; format: functional
# Staphylococcus aureus [18] = test: Antimicrobial activity against methicillin-sensitive Staphylococcus aureus MB2865 after 20 hrs by twofold serial dilution method; format: functional
# Staphylococcus aureus [19] = test: Antibacterial activity against wild-type Staphylococcus aureus RN450 at 1000 ug/mL after 18 hrs by rpsD sensitized two-plate differential sensitivity assay; format: functional; conditions: RN450, 18 h, read-out: IZ
# Staphylococcus aureus [20] = test: Antimicrobial activity against methicillin-sensitive Staphylococcus aureus ATCC 29213 at 16 ug/mL after 20 hrs by twofold serial dilution method; format: functional
# Escherichia coli [21] = test: Antimicrobial activity against wild-type Escherichia coli MB2884 after 20 hrs by twofold serial dilution method; format: functional
smiles,measurement,setting,value
Cc1cc(O)c2c(c1)C(=O)C1=C(C2=O)[C@@H](O)[C@@H](O)[C@@H](O)C1 [PLEOSPORONE],zone of inhibition at 1000 µg/mL,Staphylococcus aureus [1],21.8 mm
same,MIC,Staphylococcus aureus [2],> 64 µg/mL
same,MIC80,Staphylococcus aureus [2],4 µg/mL
same,IC50,HeLa,0.23 µg/mL
same,Activity,Staphylococcus aureus [3],inactive
same,IC50,Staphylococcus aureus [4],15.4 µg/mL
same,MIC,Bacillus subtilis,8 µg/mL
same,Activity,Staphylococcus aureus [5],80%
same,MIC,Candida albicans,> 64 µg/mL
same,Activity,Staphylococcus aureus [6],31.25 µg/mL
same,Activity,Staphylococcus aureus [7],Dose-dependent effect
same,MIC,Streptococcus pneumoniae [8],4 µg/mL
same,MIC,Streptococcus pneumoniae [9],4 µg/mL
same,Ratio IC50,Staphylococcus aureus [10],6
same,MIC,Haemophilus influenzae,1 µg/mL
same,IC50,Staphylococcus aureus [11],8.4 µg/mL
same,Activity,Streptococcus pneumoniae [12],80%
same,MIC,Escherichia coli [13],16 µg/mL
same,MIC,Enterococcus faecalis,64 µg/mL
same,MIC,Staphylococcus aureus [14],> 64 µg/mL
same,IC50,Staphylococcus aureus [15],1.3 µg/mL
same,zone of inhibition at 31.25 µg/mL,Staphylococcus aureus [16],9 mm
same,Ratio IC50,Staphylococcus aureus [17],6
same,MIC,Staphylococcus aureus [18],64 µg/mL
same,zone of inhibition at 1000 µg/mL,Staphylococcus aureus [19],19.2 mm
same,Activity,Staphylococcus aureus [20],80%
same,MIC,Escherichia coli [21],> 64 µg/mL
